According to patent US10738043B2, “GLS1 inhibitors for treating disease” (Board of Regents, The University of Texas System, priority 2015, dated 2020):

How the values were obtained:
[1] = biological target: T1, GLS1 (purified recombinant human GAC) (Homo sapiens, UniProt O94925); assay: GLS1 Enzymatic Activity Assay (dual-coupled enzymatic assay); assay type: biochemical; settings: 50 mM potassium phosphate, 1 mM glutamine, read-out: IC50 against GLS1
T1 sequence (O94925 55-598 isoform O94925-3 limits assumed): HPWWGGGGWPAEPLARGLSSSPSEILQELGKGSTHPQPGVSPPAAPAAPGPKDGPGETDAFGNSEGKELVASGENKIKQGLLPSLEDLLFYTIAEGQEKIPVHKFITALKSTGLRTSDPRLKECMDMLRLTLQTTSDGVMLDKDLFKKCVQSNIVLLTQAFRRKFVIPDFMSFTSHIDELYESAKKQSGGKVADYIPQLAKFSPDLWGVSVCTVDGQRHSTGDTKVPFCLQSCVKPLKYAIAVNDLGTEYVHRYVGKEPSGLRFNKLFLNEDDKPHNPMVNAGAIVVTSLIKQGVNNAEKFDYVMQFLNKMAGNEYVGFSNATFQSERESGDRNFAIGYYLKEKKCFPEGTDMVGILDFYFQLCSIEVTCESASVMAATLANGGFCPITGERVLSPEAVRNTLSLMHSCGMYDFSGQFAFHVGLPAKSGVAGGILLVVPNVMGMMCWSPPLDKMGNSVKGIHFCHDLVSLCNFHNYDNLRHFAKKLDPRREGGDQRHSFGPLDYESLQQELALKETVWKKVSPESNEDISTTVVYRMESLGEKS
Description: GLS1 Enzymatic Activity Assay
The inhibition of purified recombinant human GAC by varying concentrations of inhibitors is assessed via a dual-coupled enzymatic assay. The glutamate produced by the glutaminase reaction is used by glutamate oxidase to produce α-ketoglutarate, ammonia, and hydrogen peroxide, with this hydrogen peroxide subsequently being used by horseradish peroxidase to produce resorufin in the presence of Amplex UltraRed. The assay buffer consisted of 50 mM HEPES (pH 7.4), 0.25 mM EDTA and 0.1 mM Triton X-100. GAC was incubated with potassium phosphate (10 minutes at room temperature) prior to incubation with inhibitor (10 minutes at room temperature). The final reaction conditions were as follows: 2 nM GAC, 50 mM potassium phosphate, 100 mU/ml glutamate oxidase (Sigma), 1 mM glutamine (Sigma), 100 mU/ml horseradish peroxidase (Sigma), 75 μM Amplex UltraRed (Life Technologies), and 1% (v/v) DMSO. The production of resorufin was monitored on a Perkin Elmer Envision plate reader (excitation 530 nm, emission 590 nm) either in a kinetics or endpoint mode (at 20 minutes). IC50 values were calculated using a four-parameter logistic curve fit.

A549 cells = assay: Proliferation Assay (A549 viability, Cell Titer Fluor, 72 hours); assay type: cell-based; settings: Homo sapiens, read-out: EC50 against A549 cell proliferation
Description: A549 cells were routinely maintained in RPMI 1640 media (Gibco catalog number 11875-093) supplemented with 10% dialyzed fetal bovine serum using a humidified incubator (37° C., 5% CO2 and ambient O2). In preparation for the viability assay, cells were inoculated into 384-well black CulturPlates (Perkin Elmer) at a density of 1000 cells/well in a volume of 40 μl. Following a 24-hour incubation at 37° C., 5% CO2 and ambient 02, cells were treated with compound (10 μl) in a final DMSO concentration of 0.5% (v/v). The microplates were then incubated for 72 hours (37° C., 5% CO2 and ambient O2). Cell Titer Fluor (Promega) was subsequently added (10 μl of 6× reagent) and mixed for 15 minutes at room temperature. The plates were then incubated for 30 minutes (37° C., 5% CO2 and ambient O2) and fluorescence was subsequently read on the Perkin Elmer Envision plate reader. EC50 values were calculated using a four-parameter logistic curve fit.

Compound | IC50 [1] [nM] | EC50 (A549 cells) [nM]
O=C(Cc1cccc(OC(F)(F)F)c1)Nc1ccc(N2CCCC(c3nnc(NC(=O)Cc4ccccc4F)s3)C2)nn1 (stereo not drawn) [Example 23, 2-(2-fluorophenyl)-N-(5-(1-(6-(2-(3-(trifluoromethoxy)phenyl)acetamido)pyridazin-3-yl)piperidin-3-yl)-1,3,4-thiadiazol-2-yl)acetamide] | < 100 | 100 to 500
Cn1cc(CC(=O)Nc2nnc(C3CCCN(c4ccc(NC(=O)Cc5cccc(OC(F)(F)F)c5)nn4)C3)s2)cn1 (stereo not drawn) [Example 24, 2-(1-Methyl-1H-pyrazol-4-yl)-N-(5-(1-(6-(2-(3-(trifluoromethoxy)phenyl)acetamido)pyridazin-3-yl)piperidin-3-yl)-1,3,4-thiadiazol-2-yl)acetamide] | < 100 | 500 to 5000
O=C(Cc1ccccn1)Nc1nnc(C2CCCN(c3nnc(NC(=O)Cc4cccc(OC(F)(F)F)c4)s3)C2)s1 (stereo not drawn) [Example 26, 2-(pyridin-2-yl)-N-(5-(1-(5-(2-(3-(trifluoromethoxy)phenyl)acetamido)-1,3,4-thiadiazol-2-yl)piperidin-3-yl)-1,3,4-thiadiazol-2-yl)acetamide] | < 100 | 100 to 500
O=C(Cc1ccccn1)Nc1nnc(C2CCN(c3nnc(NC(=O)Cc4cccc(OC(F)(F)F)c4)s3)C2)s1 (stereo not drawn) [Example 32, 2-(pyridin-2-yl)-N-(5-(1-(5-(2-(3-(trifluoromethoxy)phenyl)acetamido)-1,3,4-thiadiazol-2-yl)pyrrolidin-3-yl)-1,3,4-thiadiazol-2-yl)acetamide] | 100 to 500 | 500 to 5000
O=C(Cc1cccc(OC(F)(F)F)c1)Nc1ccc(N2CCC(c3nnc(NC(=O)CC4CCCCO4)s3)C2)nn1 (stereo not drawn) [Example 34, 2-(tetrahydro-2H-pyran-2-yl)-N-(5-(1-(6-(2-(3-(trifluoromethoxy)phenyl)acetamido)pyridazin-3-yl)pyrrolidin-3-yl)-1,3,4-thiadiazol-2-yl)acetamide] | < 100 | < 100
Cn1ccc(CNC(=O)c2nnc(N3CCC(c4ccc(NC(=O)Cc5ccccn5)nn4)C3)s2)n1 (stereo not drawn) [Example 37, N-((1-methyl-1H-pyrazol-3-yl)methyl)-5-(3-(6-(2-(pyridin-2-yl)acetamido)pyridazin-3-yl)pyrrolidin-1-yl)-1,3,4-thiadiazole-2-carboxamide] | < 100 | 100 to 500
CNC(=O)c1nnc(N2CCC(c3ccc(NC(=O)Cc4cn(-c5cccc(OC(F)(F)F)c5)cn4)nn3)C2)s1 (stereo not drawn) [Example 40, N-methyl-5-(3-(6-(2-(1-(3-(trifluoromethoxy)phenyl)-1H-imidazol-4-yl)acetamido)pyridazin-3-yl)pyrrolidin-1-yl)-1,3,4-thiadiazole-2-carboxamide] | < 100 | < 100
O=C(Cc1ccccn1)Nc1ccc(C2CCN(c3nnc(C(=O)NCc4cccc(OC(F)(F)F)c4)s3)C2)nn1 (stereo not drawn) [Example 43, 5-(3-(6-(2-(pyridin-2-yl)acetamido)pyridazin-3-yl)pyrrolidin-1-yl)-N-(3-(trifluoromethoxy)benzyl)-1,3,4-thiadiazole-2-carboxamide] | < 100 | < 100
O=C(Cc1ccccn1)Nc1ccc([C@@H]2CCN(c3nnc(C(=O)NCc4cc(C(F)(F)F)ccn4)s3)C2)nn1 [Example 44, (R)-5-(3-(6-(2-(pyridin-2-yl)acetamido)pyridazin-3-yl)pyrrolidin-1-yl)-N-((4-(trifluoromethyl)pyridin-2-yl)methyl)-1,3,4-thiadiazole-2-carboxamide] | < 100 | < 100
O=C(Cc1ccccn1)Nc1ccc([C@@H]2CCN(c3nnc(C(=O)NCc4ccccn4)s3)C2)nn1 [Example 46, (R)-5-(3-(6-(2-(pyridin-2-yl)acetamido)pyridazin-3-yl)pyrrolidin-1-yl)-N-(pyridin-2-ylmethyl)-1,3,4-thiadiazole-2-carboxamide] | < 100 | < 100
O=C(Cc1ccccn1)Nc1ccc([C@@H]2CCN(c3nnc(C(=O)NCc4cc(C5CC5)ccn4)s3)C2)nn1 [Example 47, (R)-N-((4-cyclopropylpyridin-2-yl)methyl)-5-(3-(6-(2-(pyridin-2-yl)acetamido)pyridazin-3-yl)pyrrolidin-1-yl)-1,3,4-thiadiazole-2-carboxamide] | < 100 | < 100

Continued, values first:

IC50 [1] [nM] | EC50 (A549 cells) [nM] | Compound
100 to 500 | 500 to 5000 | CC(=O)Nc1nnc(C2CCCN(c3nnc(NC(=O)Cc4cccc(OC(F)(F)F)c4)s3)C2)s1 (stereo not drawn) [Example 25, N-(5-(3-(5-acetamido-1,3,4-thiadiazol-2-yl)piperidin-1-yl)-1,3,4-thiadiazol-2-yl)-2-(3-(trifluoromethoxy)phenyl)acetamide]
< 100 | 100 to 500 | CC(=O)Nc1nnc(N2CCC(c3ccc(NC(=O)Cc4cccc(OC(F)(F)F)c4)nn3)C2)s1 (stereo not drawn) [Example 27, N-(6-(1-(5-acetamido-1,3,4-thiadiazol-2-yl)pyrrolidin-3-yl)pyridazin-3-yl)-2-(3-(trifluoromethoxy)phenyl)acetamide]
< 100 | 100 to 500 | CC(=O)Nc1nnc(C2CCN(c3ccc(NC(=O)Cc4cccc(OC(F)(F)F)c4)nn3)C2)s1 (stereo not drawn) [Example 29, N-(6-(3-(5-acetamido-1,3,4-thiadiazol-2-yl)pyrrolidin-1-yl)pyridazin-3-yl)-2-(3-(trifluoromethoxy)phenyl)acetamide]
< 100 | 100 to 500 | O=C(Cc1cccc(OC(F)(F)F)c1)Nc1ccc(N2CCC(c3nnc(NC(=O)Cc4ccc(F)cc4F)s3)C2)nn1 (stereo not drawn) [Example 33, 2-(2,4-difluorophenyl)-N-(5-(1-(6-(2-(3-(trifluoromethoxy)phenyl)acetamido)pyridazin-3-yl)pyrrolidin-3-yl)-1,3,4-thiadiazol-2-yl)acetamide]
< 100 | 100 to 500 | O=C(Cc1cccc(OC(F)(F)F)c1)Nc1ccc(N2CCC(c3nnc(NC(=O)Cc4noc5ccccc45)s3)C2)nn1 (stereo not drawn) [Example 36, 2-(benzo[d]isoxazol-3-yl)-N-(5-(1-(6-(2-(3-(trifluoromethoxy)phenyl)acetamido)pyridazin-3-yl)pyrrolidin-3-yl)-1,3,4-thiadiazol-2-yl)acetamide]
< 100 | < 100 | O=C(Cc1ccccn1)Nc1ccc(C2CCN(c3nnc(C(=O)NCc4cc(C(F)(F)F)ccn4)s3)C2)nn1 (stereo not drawn) [Example 38, 5-(3-(6-(2-(pyridin-2-yl)acetamido)pyridazin-3-yl)pyrrolidin-1-yl)-N-((4-(trifluoromethyl)pyridin-2-yl)methyl)-1,3,4-thiadiazole-2-carboxamide]
100 to 500 | 500 to 5000 | NC(=O)c1nnc(N2CCC(c3ccc(NC(=O)Cc4ccccn4)nn3)C2)s1 (stereo not drawn) [Example 39, 5-(3-(6-(2-(pyridin-2-yl)acetamido)pyridazin-3-yl)pyrrolidin-1-yl)-1,3,4-thiadiazole-2-carboxamide]
100 to 500 | 100 to 500 | CNC(=O)c1nnc(N2CCC(c3ccc(NC(=O)Cc4ccccn4)nn3)C2)s1 (stereo not drawn) [Example 41, N-methyl-5-(3-(6-(2-(pyridin-2-yl)acetamido)pyridazin-3-yl)pyrrolidin-1-yl)-1,3,4-thiadiazole-2-carboxamide]
< 100 | 100 to 500 | O=C(Cc1ccccn1)Nc1ccc(N2CCC(c3nnc(NC(=O)Cc4cccc(OC(F)(F)F)c4)s3)C2)nn1 (stereo not drawn) [Example 42, 2-(pyridin-2-yl)-N-(6-(3-(5-(2-(3-(trifluoromethoxy)phenyl)acetamido)-1,3,4-thiadiazol-2-yl)pyrrolidin-1-yl)pyridazin-3-yl)acetamide]
< 100 | < 100 | Cc1cc(C(F)(F)F)cc(CNC(=O)c2nnc(N3CC[C@@H](c4ccc(NC(=O)Cc5ccccn5)nn4)C3)s2)n1 [Example 48, (R)-N-((6-methyl-4-(trifluoromethyl)pyridin-2-yl)methyl)-5-(3-(6-(2-(pyridin-2-yl)acetamido)pyridazin-3-yl)pyrrolidin-1-yl)-1,3,4-thiadiazole-2-carboxamide]
